Source: patent US8916597B2, “Use of pyraclostrobin as safener for triticonazole for controlling harmful fungi” (BASF SE, priority 2005, dated 2014)

Test system: bentgrass
Assay: Seed treatment of bentgrass: ground coverage by emerged plants (safener action)
Format: in vivo
Experimental: Seeds were treated with the two active compounds individually or with mixtures of both active compounds, and the development of the plants was then observed. When the mixtures were used, the negative effects of one or both mixing partners in the case of individual application were, if at all, observed at a reduced level.
Seeds of bentgrass were seed-treated with the products and concentrations listed. Triticonazol and Pyraclostrobin were used as 200 g/l FS-formulation.
Treated sees were planted at the day of treatment and then kept under humid conditions in the greenhouse. 9 days after plating the ground coverage by emerged plants were estimated in percentage.

COC(=O)N(OC)c1ccccc1COc1ccn(-c2ccc(Cl)cc2)n1 [Pyraclostrobin, pyraclostrobin]
% covered ground (10 g a.i./100 kg seed of each active compound (200 g/l FS-formulation), greenhouse, humid conditions, ground coverage by emerged plants estimated 9 days after planting, untreated 8.5%): 13.3%
safener action: negative effect of triticonazole on plant development (mixture versus individual application): negative effect of TTZ can be compensated
